Source: US8546375B2, “(3-(4-(aminomethyl)phenoxy or phenylthio)azetidin-1-yl)(5-phenyl-1,3,4-oxadiazol-2-yl)methanone compounds” (AstraZeneca AB, priority 2010, dated 2013)

Biological target: T1, Melanin Concentrating Hormone Receptor 1 (MCHR1) (Homo sapiens, UniProt Q99705)
T1 construct: expressed in transfected cells
Assay: MCHR1 Receptor Activation Assay (GTPγ^35S)
Assay type: biochemical
Conditions: read-out: GTPγ^35S IC50

T1 sequence (Q99705 whole entry): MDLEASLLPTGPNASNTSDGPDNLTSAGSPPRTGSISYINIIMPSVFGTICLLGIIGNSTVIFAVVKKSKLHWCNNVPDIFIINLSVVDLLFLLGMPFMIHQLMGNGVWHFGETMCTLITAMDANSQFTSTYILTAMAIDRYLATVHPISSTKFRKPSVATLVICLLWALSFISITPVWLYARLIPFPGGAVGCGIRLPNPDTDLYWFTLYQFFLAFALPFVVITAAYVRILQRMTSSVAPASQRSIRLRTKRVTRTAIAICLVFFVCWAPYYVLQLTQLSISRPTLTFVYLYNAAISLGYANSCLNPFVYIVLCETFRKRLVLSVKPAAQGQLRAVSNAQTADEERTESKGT

| IC50 [µM] | SMILES |
| --- | --- |
| 0.034 | CC(=O)N1CCN(Cc2ccc(OC3CN(C(=O)c4nnc(-c5ccc(Cl)cc5)o4)C3)cc2)CC1 [Example 25, 1-(4-(4-(1-(5-(4-Chlorophenyl)-1,3,4-oxadiazole-2-carbonyl)azetidin-3-yloxy)benzyl)piperazin-1-yl)ethanone] |
| 0.03 | CN(C)Cc1ccc(OC2CN(C(=O)c3nnc(-c4ccccc4)o3)C2)cc1F [Example 26, (3-(4-((Dimethylamino)methyl)-3-fluorophenoxy)azetidin-1-yl)(5-phenyl-1,3,4-oxadiazol-2-yl)methanone] |
| 0.021 | COc1ccc(-c2nnc(C(=O)N3CC(Oc4ccc(CN(C)C)c(F)c4)C3)o2)cc1 [Example 27, (3-(4-((Dimethylamino)methyl)-3-fluorophenoxy)azetidin-1-yl)(5-(4-methoxyphenyl)-1,3,4-oxadiazol-2-yl)methanone] |
| 0.027 | Cc1ccc(-c2nnc(C(=O)N3CC(Oc4ccc(CN(C)C)c(F)c4)C3)o2)cc1 [Example 28, (3-(4-((Dimethylamino)methyl)-3-fluorophenoxy)azetidin-1-yl)(5-p-tolyl-1,3,4-oxadiazol-2-yl)methanone] |
| 0.086 | CN1CCN(Cc2ccc(OC3CN(C(=O)c4nnc(-c5ccccc5)o4)C3)cc2F)CC1 [Example 29, (3-(3-Fluoro-4-((4-methylpiperazin-1-yl)methyl)phenoxy)azetidin-1-yl)(5-phenyl-1,3,4-oxadiazol-2-yl)methanone] |
| 0.02 | O=C(c1nnc(-c2ccccc2)o1)N1CC(Oc2ccc(CN3CCCC3)c(F)c2)C1 [Example 31, (3-(3-Fluoro-4-(pyrrolidin-1-ylmethyl)phenoxy)azetidin-1-yl)(5-phenyl-1,3,4-oxadiazol-2-yl)methanone] |
| 0.015 | COc1ccc(-c2nnc(C(=O)N3CC(Oc4ccc(CN5CCCC5)c(F)c4)C3)o2)cc1 [Example 32, (3-(3-Fluoro-4-(pyrrolidin-1-ylmethyl)phenoxy)azetidin-1-yl)(5-(4-methoxyphenyl)-1,3,4-oxadiazol-2-yl)methanone] |
| 0.034 | CN(C)Cc1ccc(OC2CN(C(=O)c3nnc(-c4ccccc4)o3)C2)cc1 [Example 33, (3-(4-((Dimethylamino)methyl)phenoxy)azetidin-1-yl)(5-phenyl-1,3,4-oxadiazol-2-yl)methanone] |
| 0.018 | CSc1ccc(-c2nnc(C(=O)N3CC(Oc4ccc(CN(C)C)cc4)C3)o2)cc1 [Example 34, (3-(4-((Dimethylamino)methyl)phenoxy)azetidin-1-yl)(5-(4-(methylthio)phenyl)-1,3,4-oxadiazol-2-yl)methanone] |
| 0.019 | CN(C)Cc1ccc(OC2CN(C(=O)c3nnc(-c4ccc(C(F)(F)F)cc4)o3)C2)cc1 [Example 35, (3-(4-((dimethylamino)methyl)phenoxy)azetidin-1-yl)(5-(4-(trifluoromethyl)phenyl)-1,3,4-oxadiazol-2-yl)methanone] |
| 0.013 | CN(C)Cc1ccc(OC2CN(C(=O)c3nnc(-c4ccc(Cl)cc4)o3)C2)cc1 [Example 36, (5-(4-Chlorophenyl)-1,3,4-oxadiazol-2-yl)(3-(4-((dimethylamino)methyl)phenoxy)azetidin-1-yl)methanone] |
| 0.017 | CN(C)Cc1ccc(OC2CN(C(=O)c3nnc(-c4ccc(OC(F)F)cc4)o3)C2)cc1 [Example 37, (5-(4-(Difluoromethoxy)phenyl)-1,3,4-oxadiazol-2-yl)(3-(4-((dimethylamino)methyl)phenoxy)azetidin-1-yl)methanone] |
| 0.027 | COc1ccc(-c2nnc(C(=O)N3CC(Oc4ccc(CN(C)C)cc4)C3)o2)cc1 [Example 38, (3-(4-((Dimethylamino)methyl)phenoxy)azetidin-1-yl)(5-(4-methoxyphenyl)-1,3,4-oxadiazol-2-yl)methanone] |
| 0.049 | CN(C)Cc1ccc(OC2CN(C(=O)c3nnc(-c4ccccc4)o3)C2)c(F)c1F [Example 39, (3-(4-((Dimethylamino)methyl)-2,3-difluorophenoxy)azetidin-1-yl)(5-phenyl-1,3,4-oxadiazol-2-yl)methanone] |
| 0.027 | COc1ccc(-c2nnc(C(=O)N3CC(Oc4ccc(CN(C)C)c(F)c4F)C3)o2)cc1 [Example 40, (3-(4-((Dimethylamino)methyl)-2,3-difluorophenoxy)azetidin-1-yl)(5-(4-methoxyphenyl)-1,3,4-oxadiazol-2-yl)methanone] |
| 0.025 | COc1ccc(-c2nnc(C(=O)N3CC(Oc4ccc(CN5CCC5)cc4)C3)o2)cc1 [Example 41, (3-(4-(Azetidin-1-ylmethyl)phenoxy)azetidin-1-yl)(5-(4-methoxyphenyl)-1,3,4-oxadiazol-2-yl)methanone] |
| 0.026 | O=C(c1nnc(-c2ccccc2)o1)N1CC(Oc2ccc(CN3CCC3)cc2)C1 [Example 42, (3-(4-(azetidin-1-ylmethyl)phenoxy)azetidin-1-yl)(5-phenyl-1,3,4-oxadiazol-2-yl)methanone] |
| 0.011 | Cc1cc(OC2CN(C(=O)c3nnc(-c4ccc(OC(F)F)cc4)o3)C2)ccc1CN(C)C [Example 43, (5-(4-(Difluoromethoxy)phenyl)-1,3,4-oxadiazol-2-yl)(3-(4-((dimethylamino)methyl)-3-methylphenoxy)azetidin-1-yl)methanone] |

| IC50 [µM] | SMILES |
| --- | --- |
| 0.01 | Cc1cc(OC2CN(C(=O)c3nnc(-c4ccc(Cl)cc4)o3)C2)ccc1CN(C)C [Example 44, (5-(4-Chlorophenyl)-1,3,4-oxadiazol-2-yl)(3-(4-((dimethylamino)methyl)-3-methylphenoxy)azetidin-1-yl)methanone] |
| 0.016 | O=C(c1nnc(-c2ccccc2)o1)N1CC(Oc2ccc(CN3CCCC3)c(C(F)(F)F)c2)C1 [Example 45, (5-Phenyl-1,3,4-oxadiazol-2-yl)(3-(4-(pyrrolidin-1-ylmethyl)-3-(trifluoromethyl)phenoxy)azetidin-1-yl)methanone] |
| 0.018 | COc1ccc(-c2nnc(C(=O)N3CC(Oc4ccc(CN5CCCC5)c(C(F)(F)F)c4)C3)o2)cc1 [Example 46, (5-(4-Methoxyphenyl)-1,3,4-oxadiazol-2-yl)(3-(4-(pyrrolidin-1-ylmethyl)-3-(trifluoromethyl)phenoxy)azetidin-1-yl)methanone] |
| 0.019 | COc1ccc(-c2nnc(C(=O)N3CC(Oc4ccc(CN(C)C)c(Cl)c4)C3)o2)cc1 [Example 47, (3-(3-Chloro-4-((dimethylamino)methyl)phenoxy)azetidin-1-yl)(5-(4-methoxyphenyl)-1,3,4-oxadiazol-2-yl)methanone] |
| 0.018 | CN(C)Cc1ccc(OC2CN(C(=O)c3nnc(-c4ccccc4)o3)C2)cc1Cl [Example 48, (3-(3-Chloro-4-((dimethylamino)methyl)phenoxy)azetidin-1-yl)(5-phenyl-1,3,4-oxadiazol-2-yl)methanone] |
| 0.037 | COc1ccc(-c2nnc(C(=O)N3CC(Oc4ccc(CN5CCN(C)CC5)c(Cl)c4)C3)o2)cc1 [Example 49, (3-(3-Chloro-4-((4-methylpiperazin-1-yl)methyl)phenoxy)azetidin-1-yl)(5-(4-methoxyphenyl)-1,3,4-oxadiazol-2-yl)methanone] |
| 0.035 | CN1CCN(Cc2ccc(OC3CN(C(=O)c4nnc(-c5ccccc5)o4)C3)cc2Cl)CC1 [Example 50, (3-(3-Chloro-4-((4-methylpiperazin-1-yl)methyl)phenoxy)azetidin-1-yl)(5-phenyl-1,3,4-oxadiazol-2-yl)methanone] |
| 0.019 | CN(C)Cc1ccc(OC2CN(C(=O)c3nnc(-c4ccc(OC(F)F)cc4)o3)C2)cc1F [Example 51, (5-(4-(Difluoromethoxy)phenyl)-1,3,4-oxadiazol-2-yl)(3-(4-((dimethylamino)methyl)-3-fluorophenoxy)azetidin-1-yl)methanone] |
| 0.024 | COc1ccc(-c2nnc(C(=O)N3CC(Oc4ccc(CN5CCCC5)c(OC)c4C)C3)o2)cc1 [Example 52, (3-(3-Methoxy-2-methyl-4-(pyrrolidin-1-ylmethyl)phenoxy)azetidin-1-yl)(5-(4-methoxyphenyl)-1,3,4-oxadiazol-2-yl)methanone] |
| 0.028 | CNCc1ccc(OC2CN(C(=O)c3nnc(-c4ccccc4)o3)C2)cc1C [Example 53, (3-(3-Methyl-4-((methylamino)methyl)phenoxy)azetidin-1-yl)(5-phenyl-1,3,4-oxadiazol-2-yl)methanone] |
| 0.031 | CNCc1ccc(OC2CN(C(=O)c3nnc(-c4ccc(OC)cc4)o3)C2)c(C)c1 [Example 54, (5-(4-Methoxyphenyl)-1,3,4-oxadiazol-2-yl)(3-(2-methyl-4-((methylamino)methyl)phenoxy)azetidin-1-yl)methanone] |
| 0.022 | COc1ccc(-c2nnc(C(=O)N3CC(Oc4ccc(CN5CC(OC)C5)cc4)C3)o2)cc1 [Example 55, (3-(4-((3-Methoxyazetidin-1-yl)methyl)phenoxy)azetidin-1-yl)(5-(4-methoxyphenyl)-1,3,4-oxadiazol-2-yl)methanone] |
| 0.013 | COc1ccc(-c2nnc(C(=O)N3CC(Oc4ccc(CN5CC(O)(C6CC6)C5)cc4)C3)o2)cc1 [Example 56, (3-(4-((3-Cyclopropyl-3-hydroxyazetidin-1-yl)methyl)phenoxy)azetidin-1-yl)(5-(4-methoxyphenyl)-1,3,4-oxadiazol-2-yl)methanone] |
| 0.018 | COC1CN(Cc2ccc(OC3CN(C(=O)c4nnc(-c5ccccc5)o4)C3)c(Cl)c2)C1 [Example 57, (3-(2-Chloro-4-((3-methoxyazetidin-1-yl)methyl)phenoxy)azetidin-1-yl)(5-phenyl-1,3,4-oxadiazol-2-yl)methanone] |
| 0.029 | O=C(c1nnc(-c2ccccc2)o1)N1CC(Oc2ccc(CN3CC(O)C3)cc2Cl)C1 [Example 58, (3-(2-Chloro-4-((3-hydroxyazetidin-1-yl)methyl)phenoxy)azetidin-1-yl)(5-phenyl-1,3,4-oxadiazol-2-yl)methanone] |
| 0.011 | COc1ccc(-c2nnc(C(=O)N3CC(Sc4ccc(CN5CCCC5)cc4)C3)o2)cc1 [Example 59, (5-(4-Methoxyphenyl)-1,3,4-oxadiazol-2-yl)(3-(4-(pyrrolidin-1-ylmethyl)phenylthio)azetidin-1-yl)methanone] |
| 0.019 | CN(C)Cc1ccc(SC2CN(C(=O)c3nnc(-c4ccccc4)o3)C2)cc1 [Example 60, (3-(4-((Dimethylamino)methyl)phenylthio)azetidin-1-yl)(5-phenyl-1,3,4-oxadiazol-2-yl)methanone] |
